Test results taken from US20120245137A1 (Zalicus Pharmaceuticals Ltd., priority 2009, published 2012).
Where two headings read alike, the source gives them in different places.

Columns and labels:
Assay type in all cases: cell-based
CAv1.2 = CAv1.2 (Homo sapiens, UniProt Q13936); test: FLIPR data, CAv1.2 channel blocking (Table 6); details: for CAv1.2 IC50 Ratio closed/inact.: ratio closed/inactivated IC50
Human Cav 2.2 channels = Human Cav 2.2 channels (Homo sapiens, UniProt Q00975); test: Fluorescent assay for CaV2.2 channels using potassium depolarization (VIPR/FLIPR); details: FLIPR data; for CAv2.2 IC50 Ratio closed/inact.: ratio closed/inactivated IC50
In short: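 HEK293 cells stably expressing human Cav2.2 with α2δ and β subunits plus Kir2.3 were loaded with fluo-4 and incubated 30 min at 25 °C with compound in 4, 12, 25 or 30 mM potassium buffer. Channels were opened with 70 mM potassium (final) and calcium influx was read by fluorescence (Ex 480/Em 535 nm).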

T-type calcium channel [1] = target: T-type calcium channel (Homo sapiens, UniProt O95180); test: T-type channel blocking, FLIPR data (Table 6); details: for CAv3.2 IC50 Ratio closed/inact.: CAv3.2, ratio closed/inactivated IC50
Text: (§1) Another method, high-throughput spectrophotometric assay, utilizes loading of the cell lines with a fluorescent dye sensitive to intracellular calcium concentration and subsequent examination of the effects of compounds on the ability of depolarization by potassium chloride or other means to alter intracellular calcium levels.

T-type calcium channel [2] = target: T-type calcium channel (Homo sapiens, UniProt O43497); test: T-type channel blocking, FLIPR data (Table 6); details: CAv3.1
Text: as §1

[3] = closed state, read-out: CAv1.2 IC50 Closed
[4] = inactivated state, read-out: CAv1.2 IC50 Inact.
[5] = closed state, read-out: CAv2.2 IC50 Closed
[6] = inactivated state, read-out: CAv2.2 IC50 Inact.
[7] = CAv3.2, closed state, read-out: CAv3.2 IC50 Closed
[8] = CAv3.2, inactivated state, read-out: CAv3.2 IC50 Inact.

Sequence of T-type calcium channel (Homo sapiens, UniProt O43497) (O43497 whole entry): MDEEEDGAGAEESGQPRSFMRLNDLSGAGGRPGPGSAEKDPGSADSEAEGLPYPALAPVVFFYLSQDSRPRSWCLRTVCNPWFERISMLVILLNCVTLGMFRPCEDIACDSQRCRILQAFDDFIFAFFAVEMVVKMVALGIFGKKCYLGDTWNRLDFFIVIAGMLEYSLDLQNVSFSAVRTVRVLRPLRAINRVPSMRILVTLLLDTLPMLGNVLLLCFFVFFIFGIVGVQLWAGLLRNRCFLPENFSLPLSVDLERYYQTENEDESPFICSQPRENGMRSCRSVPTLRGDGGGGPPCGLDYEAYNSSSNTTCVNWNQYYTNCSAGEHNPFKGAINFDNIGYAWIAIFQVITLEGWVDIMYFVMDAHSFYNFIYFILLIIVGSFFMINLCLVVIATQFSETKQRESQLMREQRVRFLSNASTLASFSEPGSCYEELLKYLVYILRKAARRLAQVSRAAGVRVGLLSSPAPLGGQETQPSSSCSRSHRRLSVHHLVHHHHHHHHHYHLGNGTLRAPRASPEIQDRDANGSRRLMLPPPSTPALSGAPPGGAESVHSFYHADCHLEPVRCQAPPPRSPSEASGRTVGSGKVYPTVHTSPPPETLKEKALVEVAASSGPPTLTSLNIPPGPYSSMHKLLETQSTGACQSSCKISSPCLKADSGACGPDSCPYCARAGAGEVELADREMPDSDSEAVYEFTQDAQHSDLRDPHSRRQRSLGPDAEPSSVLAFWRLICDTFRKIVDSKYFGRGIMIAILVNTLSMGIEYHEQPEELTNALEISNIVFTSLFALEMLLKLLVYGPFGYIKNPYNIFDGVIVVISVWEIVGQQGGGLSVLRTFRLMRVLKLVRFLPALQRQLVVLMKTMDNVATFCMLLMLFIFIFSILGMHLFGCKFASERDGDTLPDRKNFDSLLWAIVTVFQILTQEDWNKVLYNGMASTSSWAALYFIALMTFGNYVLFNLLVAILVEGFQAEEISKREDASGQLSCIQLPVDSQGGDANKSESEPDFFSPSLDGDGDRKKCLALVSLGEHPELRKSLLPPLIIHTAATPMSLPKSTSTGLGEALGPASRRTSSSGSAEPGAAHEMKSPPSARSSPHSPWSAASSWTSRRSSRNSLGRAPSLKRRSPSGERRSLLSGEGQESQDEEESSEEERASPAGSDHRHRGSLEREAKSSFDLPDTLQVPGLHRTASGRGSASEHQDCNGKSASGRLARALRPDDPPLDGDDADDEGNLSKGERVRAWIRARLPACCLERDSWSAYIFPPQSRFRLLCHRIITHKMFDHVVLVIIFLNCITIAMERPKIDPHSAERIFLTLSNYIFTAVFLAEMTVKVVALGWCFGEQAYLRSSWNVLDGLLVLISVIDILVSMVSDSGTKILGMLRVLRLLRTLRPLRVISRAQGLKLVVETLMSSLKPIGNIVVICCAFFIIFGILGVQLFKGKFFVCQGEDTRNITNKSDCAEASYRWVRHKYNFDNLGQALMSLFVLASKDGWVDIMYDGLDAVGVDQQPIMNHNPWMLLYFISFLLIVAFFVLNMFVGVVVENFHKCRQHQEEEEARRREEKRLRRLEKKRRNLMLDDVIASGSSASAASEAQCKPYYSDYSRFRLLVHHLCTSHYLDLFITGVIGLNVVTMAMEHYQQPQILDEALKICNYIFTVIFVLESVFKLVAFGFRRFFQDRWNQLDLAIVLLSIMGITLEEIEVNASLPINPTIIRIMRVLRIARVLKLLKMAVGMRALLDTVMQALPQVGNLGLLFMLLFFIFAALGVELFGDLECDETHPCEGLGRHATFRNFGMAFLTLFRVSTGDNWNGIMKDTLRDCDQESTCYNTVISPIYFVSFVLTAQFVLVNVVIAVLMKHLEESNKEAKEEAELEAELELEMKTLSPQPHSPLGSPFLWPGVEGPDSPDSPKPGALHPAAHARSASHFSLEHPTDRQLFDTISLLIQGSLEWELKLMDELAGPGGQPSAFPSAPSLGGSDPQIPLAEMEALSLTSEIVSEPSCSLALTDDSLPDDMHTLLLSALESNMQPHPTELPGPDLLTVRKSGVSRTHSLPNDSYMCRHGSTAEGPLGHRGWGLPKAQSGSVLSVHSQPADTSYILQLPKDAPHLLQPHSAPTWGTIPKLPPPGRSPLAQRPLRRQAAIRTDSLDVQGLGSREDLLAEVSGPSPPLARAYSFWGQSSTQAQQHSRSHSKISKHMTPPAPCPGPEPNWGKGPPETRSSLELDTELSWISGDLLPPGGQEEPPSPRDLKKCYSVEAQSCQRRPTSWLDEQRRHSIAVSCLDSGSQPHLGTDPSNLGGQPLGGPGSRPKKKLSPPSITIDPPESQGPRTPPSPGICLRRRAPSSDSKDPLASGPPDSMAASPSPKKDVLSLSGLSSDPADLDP
Sequence of T-type calcium channel (Homo sapiens, UniProt O95180) (O95180 whole entry): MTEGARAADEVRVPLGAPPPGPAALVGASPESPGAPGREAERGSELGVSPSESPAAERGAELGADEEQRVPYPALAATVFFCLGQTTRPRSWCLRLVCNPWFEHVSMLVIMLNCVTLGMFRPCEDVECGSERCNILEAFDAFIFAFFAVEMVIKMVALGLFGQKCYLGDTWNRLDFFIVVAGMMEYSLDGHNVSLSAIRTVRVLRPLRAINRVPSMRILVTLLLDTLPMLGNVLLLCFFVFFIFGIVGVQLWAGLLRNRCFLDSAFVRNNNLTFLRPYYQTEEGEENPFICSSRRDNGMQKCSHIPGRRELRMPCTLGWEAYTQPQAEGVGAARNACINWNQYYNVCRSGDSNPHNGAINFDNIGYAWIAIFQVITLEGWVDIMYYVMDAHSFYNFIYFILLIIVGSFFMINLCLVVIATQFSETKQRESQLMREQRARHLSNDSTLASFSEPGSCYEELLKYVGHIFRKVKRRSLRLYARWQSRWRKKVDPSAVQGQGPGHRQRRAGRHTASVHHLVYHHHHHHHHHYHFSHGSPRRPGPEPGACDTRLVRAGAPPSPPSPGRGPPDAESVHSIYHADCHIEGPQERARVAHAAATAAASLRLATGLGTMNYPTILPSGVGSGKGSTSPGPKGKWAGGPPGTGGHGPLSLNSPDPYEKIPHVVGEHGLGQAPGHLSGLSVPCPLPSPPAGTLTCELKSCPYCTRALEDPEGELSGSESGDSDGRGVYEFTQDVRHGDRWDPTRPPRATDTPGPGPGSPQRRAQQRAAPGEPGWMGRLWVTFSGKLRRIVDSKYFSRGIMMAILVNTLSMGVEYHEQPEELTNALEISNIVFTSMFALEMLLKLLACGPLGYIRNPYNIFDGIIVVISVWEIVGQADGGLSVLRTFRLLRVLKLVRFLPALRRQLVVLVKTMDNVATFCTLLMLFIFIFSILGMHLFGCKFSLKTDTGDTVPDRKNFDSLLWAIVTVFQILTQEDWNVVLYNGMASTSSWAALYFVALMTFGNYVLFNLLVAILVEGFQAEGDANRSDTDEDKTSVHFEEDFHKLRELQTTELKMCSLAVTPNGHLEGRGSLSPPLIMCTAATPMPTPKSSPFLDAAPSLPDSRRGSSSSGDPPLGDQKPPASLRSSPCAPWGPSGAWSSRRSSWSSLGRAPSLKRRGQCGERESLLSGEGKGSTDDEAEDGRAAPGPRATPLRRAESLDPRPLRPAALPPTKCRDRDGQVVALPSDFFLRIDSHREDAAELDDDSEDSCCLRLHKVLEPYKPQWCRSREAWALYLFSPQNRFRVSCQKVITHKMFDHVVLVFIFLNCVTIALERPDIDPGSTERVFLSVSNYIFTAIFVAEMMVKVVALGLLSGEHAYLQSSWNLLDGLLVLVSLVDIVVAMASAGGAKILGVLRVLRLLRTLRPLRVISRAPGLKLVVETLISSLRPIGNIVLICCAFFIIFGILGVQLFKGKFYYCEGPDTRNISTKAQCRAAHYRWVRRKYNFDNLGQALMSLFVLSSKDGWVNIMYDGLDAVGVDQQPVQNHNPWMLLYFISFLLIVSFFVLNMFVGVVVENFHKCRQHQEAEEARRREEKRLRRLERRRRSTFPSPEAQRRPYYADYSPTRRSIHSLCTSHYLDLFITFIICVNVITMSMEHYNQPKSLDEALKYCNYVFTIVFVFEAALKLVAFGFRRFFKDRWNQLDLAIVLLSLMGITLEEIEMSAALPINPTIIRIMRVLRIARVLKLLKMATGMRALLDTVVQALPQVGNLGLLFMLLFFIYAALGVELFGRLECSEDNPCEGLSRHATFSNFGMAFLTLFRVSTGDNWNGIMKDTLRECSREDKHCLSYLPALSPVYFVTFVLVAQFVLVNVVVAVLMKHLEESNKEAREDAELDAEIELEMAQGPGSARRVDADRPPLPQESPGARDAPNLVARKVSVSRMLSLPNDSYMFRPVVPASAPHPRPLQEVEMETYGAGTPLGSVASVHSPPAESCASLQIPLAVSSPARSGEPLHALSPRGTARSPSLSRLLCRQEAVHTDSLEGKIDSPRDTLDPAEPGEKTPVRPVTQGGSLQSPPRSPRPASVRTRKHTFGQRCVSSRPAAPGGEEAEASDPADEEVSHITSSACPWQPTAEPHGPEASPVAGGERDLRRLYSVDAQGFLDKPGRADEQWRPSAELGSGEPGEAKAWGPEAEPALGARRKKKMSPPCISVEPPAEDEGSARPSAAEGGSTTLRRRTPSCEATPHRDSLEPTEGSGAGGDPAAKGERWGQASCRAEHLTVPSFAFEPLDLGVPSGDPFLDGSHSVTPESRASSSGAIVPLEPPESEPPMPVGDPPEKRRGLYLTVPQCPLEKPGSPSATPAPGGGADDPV

Row | SMILES | IC50 (CAv1.2; [3]) [µM] | IC50 (CAv1.2; [4]) [µM] | CAv1.2 IC50 Ratio closed/inact. (CAv1.2) | IC50 (Human Cav 2.2 channels; [5]) [µM] | IC50 (Human Cav 2.2 channels; [6]) [µM] | CAv2.2 IC50 Ratio closed/inact. (Human Cav 2.2 channels) | IC50 (T-type calcium channel [1]; [7]) [µM] | IC50 (T-type calcium channel [1]; [8]) [µM] | CAv3.2 IC50 Ratio closed/inact. (T-type calcium channel [1]) | IC50 (T-type calcium channel [2]) [µM]
1 | CC(C)([C@H]1C[C@@H](NS(=O)(=O)c2ccc(Cl)c(F)c2)C1)S(=O)(=O)c1cc(F)cc(C(F)(F)F)c1 [Compound 600] | 6.93 | 2.22 | 3.1 | 5.25 | 0.82 | 6.4 | ≥ 10 | 5.08 | 2 | 3.57
2 | CC(C)([C@H]1C[C@@H](NS(=O)(=O)c2ccc(F)c(C(F)(F)F)c2)C1)S(=O)(=O)c1cc(F)cc(C(F)(F)F)c1 [Compound 601] | 8.84 | 2.86 | 3.1 | 7.07 | 0.9 | 7.9 | ≥ 10 | 4.97 | 2 | 3.82
3 | CC(C)([C@H]1C[C@@H](NS(=O)(=O)c2ccc(C(F)(F)F)nc2)C1)S(=O)(=O)c1cc(F)cc(C(F)(F)F)c1 [Compound 602] | 9.77 | 3.94 | 2.5 | 6.08 | 0.75 | 8.1 | ≥ 10 | 5.38 | 1.9 | 6.36
4 | CC(C)([C@H]1C[C@@H](NS(=O)(=O)c2ccc(OC(F)(F)F)cc2)C1)S(=O)(=O)c1cc(F)cc(C(F)(F)F)c1 [Compound 603] | 6.92 | 2.12 | 3.3 | 4.17 | 0.61 | 6.8 | ≥ 10 | 6.46 | 1.5 | 5.48
5 | CC(C)([C@H]1C[C@H](NS(=O)(=O)c2ccc(C(F)(F)F)cc2)C1)S(=O)(=O)c1cc(F)cc(C(F)(F)F)c1 [Compound 605] | 5.29 | 1.92 | 2.8 | 5.4 | 0.87 | 6.2 | 4.79 | 2.21 | 2.2 | 4.35
6 | CC(C)([C@H]1C[C@H](NS(=O)(=O)c2ccc(F)c(Cl)c2)C1)S(=O)(=O)c1cc(F)cc(C(F)(F)F)c1 [Compound 606] | 5.65 | 2.76 | 2 | 2.51 | 0.92 | 2.7 | 8.53 | 3.57 | 2.4 | 4.17
7 | CC(C)([C@H]1C[C@H](NS(=O)(=O)c2ccc(Cl)c(F)c2)C1)S(=O)(=O)c1cc(F)cc(C(F)(F)F)c1 [Compound 607] | 7.78 | 2.99 | 2.6 | 2.97 | 1.15 | 2.6 | ≥ 10 | 3.73 | 2.7 | 5.43
8 | CC(C)([C@H]1C[C@H](NS(=O)(=O)c2ccc(F)c(C(F)(F)F)c2)C1)S(=O)(=O)c1cc(F)cc(C(F)(F)F)c1 [Compound 608] | 7.75 | 2.45 | 3.2 | 4.03 | 1.1 | 3.7 | ≥ 10 | 2.58 | 3.9 | 4.92
9 | CC(C)([C@H]1C[C@H](NS(=O)(=O)c2ccc(C(F)(F)F)nc2)C1)S(=O)(=O)c1cc(F)cc(C(F)(F)F)c1 [Compound 609] | 9.99 | 4.32 | 2.3 | 4.17 | 1.17 | 3.6 | ≥ 10 | 2.54 | 3.9 | 9.91
10 | CC(C)([C@H]1C[C@H](NS(=O)(=O)c2ccc(OC(F)(F)F)cc2)C1)S(=O)(=O)c1cc(F)cc(C(F)(F)F)c1 [Compound 610] | 8.93 | 2.93 | 3 | 3.58 | 1.13 | 3.2 | ≥ 10 | 1.43 | 7 | 5.3
11 | Cc1nc(S(=O)(=O)N[C@H]2C[C@H](C(C)(C)S(=O)(=O)c3cc(F)cc(C(F)(F)F)c3)C2)cn1C [Compound 611] | ≥ 10 | ≥ 10 | – | 10 | 9.14 | 1.1 | – | 10 | – | ≥ 10
12 | CC(C)(C1CC(CNC(=O)c2ccc(C(F)(F)F)cc2S(C)(=O)=O)C1)S(=O)(=O)c1cccc(C(F)(F)F)c1 (stereo not shown) [Compound 612] | ≥ 10 | 4.17 | 2.4 | 8.54 | 0.54 | 15.8 | 9.28 | 3.95 | 2.3 | ≥ 10
13 | CC(C)S(=O)(=O)c1cc(C(F)(F)F)cnc1C(=O)NCC1CC(C(C)(C)S(=O)(=O)c2cccc(C(F)(F)F)c2)C1 (stereo not shown) [Compound 613] | 8 | 5.92 | 1.4 | 6.51 | 0.35 | 18.6 | 9.16 | 5.45 | 1.7 | ≥ 10
14 | CC(C)(C1CC(CNC(=O)c2cc(C(F)(F)F)n[nH]2)C1)S(=O)(=O)c1cccc(C(F)(F)F)c1 (stereo not shown) [Compound 614] | 8.03 | 2.41 | 3.3 | 2.87 | 0.49 | 5.9 | 7.2 | 3.2 | 2.3 | ≥ 10
15 | CC(C)(C1CC(CNC(=O)c2ccnc(C(F)(F)F)n2)C1)S(=O)(=O)c1cccc(C(F)(F)F)c1 (stereo not shown) [Compound 615] | ≥ 10 | 5.61 | 1.8 | 1.37 | 0.25 | 5.5 | ≥ 10 | 7.17 | 1.4 | ≥ 10
16 | CC(C)(C1CC(CNC(=O)c2cnc(C(F)(F)F)nc2)C1)S(=O)(=O)c1cccc(C(F)(F)F)c1 (stereo not shown) [Compound 616] | ≥ 10 | 2.81 | 3.6 | 4.81 | 0.61 | 7.9 | ≥ 10 | 6.4 | 1.6 | ≥ 10
